{"source": "patent US10456441B2", "about": "“Augmenting the immune response by promoting cell death of immune cells” (The University of Vermont and State Agricultural College, priority 2014, dated 2019)", "assay_type_in_all_cases": "cell-based, mice", "key": {"[1]": {"tested_on": "CD4 OT-II T cells", "test": "OT-II αβ T cell cultures with DC and OVAp", "conditions": "OVAp + DC treated with zVAD (50 μM)", "method": "C57BL/6 OT-II mice contain CD4^+ T cells that respond to ovalbumin peptide (OVAp) 323-339 in the context of I-A^b (27). OT-II T cells were cultured with C57BL/6 DC at a 1:1 ratio in the presence of OVAp (10 μg/ml) with or without zVAD (50 μM). Supernatants were collected after 20 h and analyzed for production of IFN-γ and IL-17 by Bio-Plex."}, "[2]": {"tested_on": "BMDC", "test": "Cytokine production by Borrelia-stimulated BMDC (Bio-Plex)", "conditions": "zVAD, 20 h", "method": "(§1) The preparation of bone marrow-derived dendritic cells (BMDC) was done according to the method of Lutz et al. (26) using GM-CSF ([…] PeproTech, Rocky Hill N.J.) or GM-CSF plus IL-4 (10 μg/ml, PeproTech). Cells were used on day 7.\n(§2) Day 7 γδ T cells and BMDC were cultured either individually or together at a 1:1 ratio (10^6 cells/ml each). To some cultures the following reagents were added: a sonicate of Borrelia burgdorferi (10 μg/ml), zVAD-fmk (MP Biomedical, Santa Ana Calif.) at the doses indicated, necrostatin (50 μM, R&D Systems, Minneapolis, Minn.), anti-TNF-α (10 μg/ml, Calbiochem, Darnstadt, Germany),, anti-IL-1 Receptor antagonist, Anakinra (200 ng/ml, Amgen, Thousand Oaks, Calif.), anti-IL-12 (10 μg/ml, BioLegend San Diego, Calif.), anti-IL-18 (10 μg/ml, MBL, Woburn Mass.), or rat IgG (10 μg/ml Jackson Immunoresearch, West Grove Pa.). Transwell assays were performed using 1×10^6 γδ T cells in 1 ml of complete medium+IL-2 placed in the lower chamber, with 5×10^5 DC in 100 μl placed in the upper chamber. […]\n(§3) Cytokine levels of IFN-γ, IL-1β, IL-12p40, IL-12p70, IL-17, and TNF-α were detected using the Bio-Plex, MilliPlex, or Luminex immunoassay (Bio-Rad; Millipore-EMD; R&D Systems, Minneapolis, Minn.) according to the manufacturer's protocol. Briefly, samples were run undiluted or diluted 1:10 in RPMI complete media. 50 μl of the magnetic bead working solution was added to each well, then 50 μl of appropriate samples or standards were then added to wells and incubated at room temperature for 30-120 min at 800 rpm on an IKA MS 3 digital shaker. After three washes with 100 μl Bio-Plex wash buffer, incubation with 25 μl of detection antibody solution was done at room temperature for 30-60 min on the shaker. Following another set of three washes, 50 μl of streptavidin-phycoerythrin (PE) in assay buffer was added to each well and incubated as described for the previous step. After an additional three washes, 125 μl of assay buffer was added. Sample data was analyzed with Bio-Plex Manager software."}, "[3]": {"tested_on": "γδ T cells", "test": "Mixed cultures of γδ T cells and BMDC: γδ T cell activation (IL-17, IFN-γ, CD25)", "method": "Cells were washed three times and then rocked with goat anti-rat conjugated magnetic beads at a 10:1 ratio of beads to cell at 4° C. for 45 min. Magnetic depletion was used to remove bead-bound cells. […] After 2 days, cells were removed from anti-TCR-γδ stimulation, supplied with fresh medium plus IL-2, and returned to culture at a density of 0.3×10^6 cells/ml. Cells were counted daily and supplied with fresh media containing 50 units/ml IL-2. […] In addition, in some experiments freshly isolated splenic γδ T cells were prepared using anti-γδ-coated magnetic beads (Miltenyi Biotec) and magnet purification.\nas §1, §2, §3\nThe following monoclonal antibodies to murine cell surface molecules were purchased from BioLegend: PE-conjugated anti-CD25, APC-conjugated anti-TCR-γδ, and TNF-α neutralizing antibody. Rat IgG was purchased from Jackson Immunoresearch (West Grove, Pa.). For direct staining, single cell suspensions (1×10^6 total cells per staining condition) were washed with cold (4° C.) PBS containing 1% (w/v) BSA fraction V (Sigma) (PBS/1% BSA), incubated with unconjugated rat IgG (50 μg/ml) for 15 min at 4° C., washed again, and then incubated with the appropriate antibodies in PBS/1% BSA. After washing, the cells were fixed with freshly made 1% (v/v) methanol-free formaldehyde (Ted Pella Inc., Redding, Calif.) in PBS/1% BSA."}, "[4]": {"conditions": "cultured γδ T cells + zVAD-treated BMDC, presence of B. burgdorferi, zVAD 50 μM, 20 h"}, "[5]": {"conditions": "freshly isolated splenic γδ T cells + zVAD-treated DC + Borrelia"}, "[6]": {"conditions": "freshly isolated splenic γδ T cells + zVAD-treated DC, absence of Borrelia"}, "[7]": {"conditions": "zVAD-treated BMDC, absence of Borrelia"}}, "note": "Where a SMILES comes first, the peptide text is derived from it. The star is where a group is joined. Cbz = O=C(OCc1ccccc1)*; CH2F = FC*", "data": [{"smiles": "CC(C)[C@H](NC(=O)OCc1ccccc1)C(=O)N[C@@H](C)C(=O)N[C@@H](CC(=O)O)C(=O)CF", "note": "[zVAD, N-benzyloxycarbonyl-Val-Ala-Asp-fluoromethyl ketone] (Cbz-Val-Ala-Asp-CH2F)", "values": [{"measurement": "production of IFN-γ by OT-II T cells", "setting": "[1]", "result": "considerably augmented"}, {"measurement": "production of IL-17 by OT-II T cells", "setting": "[1]", "result": "considerably augmented"}, {"measurement": "BMDC production of IL-1β", "setting": "[2]", "result": "completely inhibited"}, {"measurement": "BMDC production of TNF-α", "setting": "[2]", "result": "augmented"}, {"measurement": "production of IL-12 p40 by BMDC", "setting": "[2]", "result": "partially inhibited"}, {"measurement": "production of IL-12 p70 by BMDC", "setting": "[2]", "result": "partially inhibited"}, {"measurement": "expression of surface CD25 on γδ T cells", "setting": "[3]; [4]", "result": "increased expression"}, {"measurement": "production of IFN-γ by γδ T cells", "setting": "[3]; [4]", "result": "augmented production"}, {"measurement": "production of IL-17 by γδ T cells", "setting": "[3]; [4]", "result": "augmented production"}, {"measurement": "production of IFN-γ by fresh γδ T cells", "setting": "[3]; [5]", "result": "greatly augmented production"}, {"measurement": "production of IL-17 by fresh γδ T cells", "setting": "[3]; [5]", "result": "greatly augmented production"}, {"measurement": "production of IFN-γ by fresh γδ T cells", "setting": "[3]; [6]", "result": "occurred even in the absence of Borrelia"}, {"measurement": "production of IL-17 by fresh γδ T cells", "setting": "[3]; [6]", "result": "occurred even in the absence of Borrelia"}, {"measurement": "activation of γδ T cells in transwell assay", "setting": "[3]; no cell contact, BMDC+Borrelia+zVAD in upper chamber", "result": "partial activation"}, {"measurement": "activation of γδ T cells by supernatants alone", "setting": "[3]; supernatants from cultures with BMDC+Borrelia+zVAD, no added BMDC or Borrelia", "result": "could augment activation"}, {"measurement": "production of IFNγ by γδ T cells", "setting": "[3]; [7]", "result": "some production"}, {"measurement": "production of IL-17 by γδ T cells", "setting": "[3]; [7]", "result": "some production"}]}]}
